According to patent US20240358733A1, “APPLICATION OF TYPHANEOSIDE IN PREPARATION OF MEDICINE FOR URIC ACID-LOWERING AND/OR KIDNEY INJURY” (Institute of Chinese Materia Medica, China Academy of …, priority 2023, published 2024):

How the values were obtained:
[1] = tested on: rats with hyperuricemia; experiment: Blood uric acid level in rats with adenine combined with ethambutol-induced hyperuricemia; format: in vivo, rat; conditions: for Blood uric acid: serum, mean±SD, model group 144.43 ± 31.20
Experimental: There were 48 Male SPF grade SD rats, weighing 200-220 g, purchased from Beijing Vital River Laboratory Animal Technology Co., Ltd., license No. SCXK (Beijing) 2016-0006. The animals were housed in a barrier environment animal laboratory, with automatic temperature control (temperature 20-26° C.), relative humidity 40-70%, and full fresh air. Artificial light was adopted with a 12-hour light-dark cycle. Group experiments were started after 1 day of acclimatization. Animals were fed with standard rat pellet feed, provided by Beijing Keao Xieli Feed Co. Ltd., with purified water.
The rats were randomly divided into 6 groups of 8 rats each, which were control group, model group, typhaneoside low dose group (25 mg/kg) and typhaneoside high dose group (50 mg/kg), isorhamnetin low dose group (25 mg/kg) and isorhamnetin high dose group (50 mg/kg).
Adenine was purchased from Sigma-Aldrich (USA), and 0.5% CMC-Na was used to formulate adenine into a suspension at a concentration of 20 mg/mL, ready-to-use, with an administration volume of 5 mL/kg and a dosage of 100 mg/kg. Ethambutol hydrochloride tablets were purchased from Chengdu Jinhua Pharmaceutical Co., Ltd, and 0.5% CMC-Na was used to formulate ethambutol hydrochloride tablets into a suspension at a concentration of 50 mg/ml, ready-to-use, with an administration volume of 5 mL/kg and a dosage of 250 mg/kg. […]
Observation and detection indicators: fasting for 16 hours after the last administration, blood was collected from the abdominal aorta of rats in each group, centrifuged at 3500 rpm for 15 minutes after standing, separated and collected serum, and the content of uric acid in the serum was measured using an Automatic Chemical Analysis.
Statistical methods: data were expressed as mean±standard deviation (x±S) and analyzed by one-way ANOVA. […]

[2] = tested on: rats with hyperuricemic kidney injury; experiment: Kidney function biochemical indicators (serum BUN, SCr) in rats with hyperuricemic kidney injury; format: in vivo, rat; conditions: for BUN / SCr: serum; for BUN: model group 11.87 ± 2.27; for SCr: model group 49.09 ± 9.42
Description: (§1) The establishment of the model as well as the experimental grouping and administration were the same as in Example 1.
(1) Kidney function biochemical indicators detection: the method of blood sampling and serum collection was the same as in Example 1, and an Automatic Chemical Analysis was used to detect the content of serum creatinine (SCr) by using the creatine oxidase method, and to detect the content of blood urea nitrogen (BUN) by using the urease method and the kinetic method.

[3] = tested on: rats with hyperuricemia; experiment: Urate deposition in rat kidney tissues, hexamine silver staining; format: in vivo; conditions: FIG. 1, hexamine silver staining, 25 and 50 mg/kg, in words
Experimental: as §1
(§2) (2) Pathological examination of kidney tissue: anesthetize rats, dissect, and remove kidney tissue. The kidney tissues were fixed with 10% neutral formalin. After sufficient fixation, sampling, gradient dehydration, xylene transparency, paraffin embedding, and preparation of 3 μm paraffin sections were performed according to routine procedures. The kidney tissue lesions as well as urate deposition in the kidney tissues were examined by light microscopy using HE (hematoxylin & eosin) staining and hexamine silver staining, respectively.

[4] = tested on: rats with hyperuricemia; experiment: Pathological examination of rat kidney tissue, HE staining; format: in vivo; conditions: FIG. 2, HE staining, in words
Experimental: as §1, §2

[5] = high dose 50 mg/kg by gavage once a day for 7 days
[6] = low dose 25 mg/kg by gavage once a day for 7 days

COc1cc(-c2oc3cc(O)cc(O)c3c(=O)c2O)ccc1O [Isorhamnetin, isorhamnetin]
Effect on the blood uric acid level compared with the model group ([1]; different doses (25 and 50 mg/kg), in words): did not show a significant reducing effect | Blood uric acid [1, 5]: 105.74 ± 42.62 µmol/L | Blood uric acid [1, 6]: 118.56 ± 26.76 µmol/L | Serum BUN level compared with the model group ([2]; 25 and 50 mg/kg, in words): did not show significant reduction | Serum SCr level compared with the model group ([2]; 25 and 50 mg/kg, in words): did not show significant reduction | BUN [2, 5]: 8.26 ± 3.99 mmol/L | SCr [2, 5]: 47.12 ± 12.00 µmol/L | BUN [2, 6]: 7.90 ± 2.48 mmol/L | SCr [2, 6]: 41.66 ± 5.72 µmol/L | Deposited urate crystals in kidney tissue compared with the model group [3]: only slightly reduced | Kidney tissue pathological changes ([4]; high dose group 50 mg/kg): severe renal tubular dilatation and epithelial cell detachment were still observed | Kidney tissue pathological changes ([4]; low dose group 25 mg/kg): severe renal tubular dilatation and epithelial cell detachment were still observed
